Laboratory results published in ChEMBL document CHEMBL3885881, “DrugMatrix”.

Species on record: Rattus norvegicus
Experiment: DrugMatrix - Regimen: Daily Repeat
Assay type: toxicity, organism-based, Sprague-Dawley
Design: regimen Daily Repeat, gender Male, age 6-8 weeks
Conditions: in vivo, ip, 10 mg/kg, route intraperitoneal, dose level High, vehicle 100 % SALINE; for ALANINE AMINOTRANSFERASE / ALBUMIN / ALKALINE PHOSPHATASE / ASPARTATE AMINOTRANSFERASE / BLOOD UREA NITROGEN / CHLORIDE / CHOLESTEROL / CREATINE PHOSPHOKINASE / CREATININE / GLUCOSE / LACTATE DEHYDROGENASE / LIPASE / PHOSPHORUS / SODIUM / TOTAL BILIRUBIN / TOTAL PROTEIN / URIC ACID / POTASSIUM: tissue Plasma
[1] = 120 h, tissue Blood, time 5 day

COBALTOUS CHLORIDE
ABSOLUTE EOSINOPHIL [1]: 74 cells/µL
ABSOLUTE LYMPHOCYTE [1]: 8680 cells/µL
ABSOLUTE MONOCYTE [1]: 210 cells/µL
ABSOLUTE SEGMENTED NEUTROPHIL [1]: 1660 cells/µL
BASOPHIL [1]: 0.44%
EOSINOPHIL [1]: 0.68%
ERYTHROCYTE COUNT [1]: 7.83 x10E6/uL
HEMATOCRIT [1]: 48.96%
HEMOGLOBIN [1]: 15.82 G/DL
LEUKOCYTE COUNT [1]: 10.72 x10E3/uL
LYMPHOCYTE [1]: 81.38%
MEAN CORPUSCULAR HEMOGLOBIN [1]: 20.22 pg
MEAN CORPUSCULAR HEMOGLOBIN CONCENTRATION [1]: 32.34 G/DL
MEAN CORPUSCULAR VOLUME [1]: 62.58 fL
MONOCYTE [1]: 1.94%
NEUTROPHIL [1]: 15.1%
PLATELET COUNT [1]: 1648.2 x10E3/uL
ALANINE AMINOTRANSFERASE (120 h, time 5 day): 27.2 u/L
ALBUMIN (120 h, time 5 day): 3.7 G/DL
ALKALINE PHOSPHATASE (120 h, time 5 day): 212.6 u/L
ASPARTATE AMINOTRANSFERASE (120 h, time 5 day): 86.6 u/L
BLOOD UREA NITROGEN (120 h, time 5 day): 17.2 mg/dL
CHLORIDE (120 h, time 5 day): 110.4 MEQ/L
CHOLESTEROL (120 h, time 5 day): 49.8 mg/dL
CREATINE PHOSPHOKINASE (120 h, time 5 day): 277.6 u/L
CREATININE (120 h, time 5 day): 0.56 mg/dL
GLUCOSE (120 h, time 5 day): 125.8 mg/dL
LACTATE DEHYDROGENASE (120 h, time 5 day): 60.2 u/L
LIPASE (120 h, time 5 day): 31.2 u/L
PHOSPHORUS (120 h, time 5 day): 11.88 mg/dL
SODIUM (120 h, time 5 day): 148.6 MEQ/L
TOTAL BILIRUBIN (120 h, time 5 day): 0.26 mg/dL
TOTAL PROTEIN (120 h, time 5 day): 6.26 G/DL
URIC ACID (120 h, time 5 day): 1.38 mg/dL
ABSOLUTE BASOPHIL ([…], tissue Blood, time 14 day): 72 cells/µL
ABSOLUTE EOSINOPHIL ([…], tissue Blood, time 14 day): 76 cells/µL
ABSOLUTE LYMPHOCYTE ([…], tissue Blood, time 14 day): 8200 cells/µL
ABSOLUTE MONOCYTE ([…], tissue Blood, time 14 day): 260 cells/µL
ABSOLUTE SEGMENTED NEUTROPHIL ([…], tissue Blood, time 14 day): 1320 cells/µL
BASOPHIL ([…], tissue Blood, time 14 day): 0.66%
EOSINOPHIL ([…], tissue Blood, time 14 day): 0.8%
ERYTHROCYTE COUNT ([…], tissue Blood, time 14 day): 8.58 x10E6/uL
HEMATOCRIT ([…], tissue Blood, time 14 day): 54.6%
HEMOGLOBIN ([…], tissue Blood, time 14 day): 17.66 G/DL
LEUKOCYTE COUNT ([…], tissue Blood, time 14 day): 9.97 x10E3/uL
LYMPHOCYTE ([…], tissue Blood, time 14 day): 81.92%
MEAN CORPUSCULAR HEMOGLOBIN ([…], tissue Blood, time 14 day): 20.62 pg
MEAN CORPUSCULAR HEMOGLOBIN CONCENTRATION ([…], tissue Blood, time 14 day): 32.34 G/DL
MONOCYTE ([…], tissue Blood, time 14 day): 2.54%
NEUTROPHIL ([…], tissue Blood, time 14 day): 13.72%
PLATELET COUNT ([…], tissue Blood, time 14 day): 1213.6 x10E3/uL
ABSOLUTE BASOPHIL ([…], tissue Blood, time 28 day): 170 cells/µL
ABSOLUTE EOSINOPHIL ([…], tissue Blood, time 28 day): 160 cells/µL
ABSOLUTE LYMPHOCYTE ([…], tissue Blood, time 28 day): 8960 cells/µL
ABSOLUTE MONOCYTE ([…], tissue Blood, time 28 day): 240 cells/µL
ABSOLUTE SEGMENTED NEUTROPHIL ([…], tissue Blood, time 28 day): 2230 cells/µL
BASOPHIL ([…], tissue Blood, time 28 day): 1.38%
EOSINOPHIL ([…], tissue Blood, time 28 day): 1.23%
ERYTHROCYTE COUNT ([…], tissue Blood, time 28 day): 9.9 x10E6/uL
HEMATOCRIT ([…], tissue Blood, time 28 day): 61.68%
HEMOGLOBIN ([…], tissue Blood, time 28 day): 19.49 G/DL
LEUKOCYTE COUNT ([…], tissue Blood, time 28 day): 11.78 x10E3/uL
LYMPHOCYTE ([…], tissue Blood, time 28 day): 76.07%
MEAN CORPUSCULAR HEMOGLOBIN ([…], tissue Blood, time 28 day): 19.7 pg
MEAN CORPUSCULAR HEMOGLOBIN CONCENTRATION ([…], tissue Blood, time 28 day): 31.56 G/DL
MONOCYTE ([…], tissue Blood, time 28 day): 2.09%
NEUTROPHIL ([…], tissue Blood, time 28 day): 19.02%
PLATELET COUNT ([…], tissue Blood, time 28 day): 1119.7 x10E3/uL
ALANINE AMINOTRANSFERASE ([…], time 14 day): 29 u/L
ALBUMIN ([…], time 14 day): 3.74 G/DL
ALKALINE PHOSPHATASE ([…], time 14 day): 189.6 u/L
ASPARTATE AMINOTRANSFERASE ([…], time 14 day): 91.8 u/L
BLOOD UREA NITROGEN ([…], time 14 day): 14.6 mg/dL
CHLORIDE ([…], time 14 day): 112 MEQ/L
CHOLESTEROL ([…], time 14 day): 48.8 mg/dL
CREATINE PHOSPHOKINASE ([…], time 14 day): 182.6 u/L
CREATININE ([…], time 14 day): 0.52 mg/dL
GLUCOSE ([…], time 14 day): 124.8 mg/dL
LACTATE DEHYDROGENASE ([…], time 14 day): 103.2 u/L
LIPASE ([…], time 14 day): 22 u/L
POTASSIUM ([…], time 14 day): 6.24 MEQ/L
SODIUM ([…], time 14 day): 149.8 MEQ/L
TOTAL BILIRUBIN ([…], time 14 day): 0.26 mg/dL
TOTAL PROTEIN ([…], time 14 day): 6.68 G/DL
URIC ACID ([…], time 14 day): 1.26 mg/dL
ALANINE AMINOTRANSFERASE ([…], time 28 day): 38.1 u/L
ALBUMIN ([…], time 28 day): 3.64 G/DL
ALKALINE PHOSPHATASE ([…], time 28 day): 126.6 u/L
ASPARTATE AMINOTRANSFERASE ([…], time 28 day): 117.5 u/L
BLOOD UREA NITROGEN ([…], time 28 day): 15.5 mg/dL
CHLORIDE ([…], time 28 day): 110.7 MEQ/L
CHOLESTEROL ([…], time 28 day): 27.7 mg/dL
CREATINE PHOSPHOKINASE ([…], time 28 day): 386.4 u/L
CREATININE ([…], time 28 day): 0.7 mg/dL
GLUCOSE ([…], time 28 day): 88.3 mg/dL
LACTATE DEHYDROGENASE ([…], time 28 day): 116.6 u/L
LIPASE ([…], time 28 day): 2.8 u/L
PHOSPHORUS ([…], time 28 day): 10.92 mg/dL
POTASSIUM ([…], time 28 day): 6.81 MEQ/L
SODIUM ([…], time 28 day): 152.5 MEQ/L
TOTAL BILIRUBIN ([…], time 28 day): 0.33 mg/dL
TOTAL PROTEIN ([…], time 28 day): 6.59 G/DL
URIC ACID ([…], time 28 day): 1.31 mg/dL
